# Values quoted from earlier work in patent US20090088578A1, “NUCLEAR MAGNETIC RESONANCE IMAGING OF SELECTIVE SMALL MOLECULE DRUGS AS CONTRAST AGENTS” (priority 2007, published 2009).
# Molecular target: T1, aldehyde dehydrogenase 1 (Homo sapiens, UniProt P00352)
# T1 sequence (P00352 1-501): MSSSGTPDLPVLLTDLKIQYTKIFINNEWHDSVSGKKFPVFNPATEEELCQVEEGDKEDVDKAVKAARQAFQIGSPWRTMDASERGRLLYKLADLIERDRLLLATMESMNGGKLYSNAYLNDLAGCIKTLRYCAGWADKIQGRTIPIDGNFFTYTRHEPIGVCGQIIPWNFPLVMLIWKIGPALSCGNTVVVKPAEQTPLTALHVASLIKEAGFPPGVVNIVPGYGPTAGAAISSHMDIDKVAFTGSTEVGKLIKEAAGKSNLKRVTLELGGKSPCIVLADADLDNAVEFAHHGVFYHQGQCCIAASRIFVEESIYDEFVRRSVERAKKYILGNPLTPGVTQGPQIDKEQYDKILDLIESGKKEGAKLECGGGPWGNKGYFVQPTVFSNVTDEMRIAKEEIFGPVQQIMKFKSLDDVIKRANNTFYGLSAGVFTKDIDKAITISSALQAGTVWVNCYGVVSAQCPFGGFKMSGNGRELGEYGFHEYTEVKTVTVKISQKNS
# Conditions: one of its two known protein targets
structure (smiles),measurement,value
"CCN(CC)CCCC(C)Nc1ccnc2cc(Cl)ccc12 (stereo not shown) [Chloroquine, chloroquine]",affinity for aldehyde dehydrogenase 1,low affinity
